Test [1] concerns the target T1, Polyadenylate-binding protein 1 (Homo sapiens, UniProt P11940). The experiment in a line: PABP1 MLLE–PAM2 binding inhibitor potency, dose response, biochemical, fluorescence polarization, FITC-PAM2 peptide (AID 602259). It is filed as functional. The conditions noted are these: read-out: IC50_Mean. (In fluorescence polarisation assays a small probe gives low polarisation when free and higher when bound to something large.)

Test [2] addresses T2, Sentrin-specific protease 8 (Homo sapiens, UniProt Q96LD8).
T2 sequence (Q96LD8 whole entry): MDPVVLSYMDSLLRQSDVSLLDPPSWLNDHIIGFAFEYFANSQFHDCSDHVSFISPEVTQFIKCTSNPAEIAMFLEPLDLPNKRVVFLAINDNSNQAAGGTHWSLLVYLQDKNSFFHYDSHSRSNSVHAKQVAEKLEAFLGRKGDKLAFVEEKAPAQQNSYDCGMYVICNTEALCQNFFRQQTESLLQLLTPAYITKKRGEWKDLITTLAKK
Format: functional.

Test [3] addresses T3, Sentrin-specific protease 7 (Homo sapiens, UniProt Q9BQF6).
T3 sequence (Q9BQF6 whole entry): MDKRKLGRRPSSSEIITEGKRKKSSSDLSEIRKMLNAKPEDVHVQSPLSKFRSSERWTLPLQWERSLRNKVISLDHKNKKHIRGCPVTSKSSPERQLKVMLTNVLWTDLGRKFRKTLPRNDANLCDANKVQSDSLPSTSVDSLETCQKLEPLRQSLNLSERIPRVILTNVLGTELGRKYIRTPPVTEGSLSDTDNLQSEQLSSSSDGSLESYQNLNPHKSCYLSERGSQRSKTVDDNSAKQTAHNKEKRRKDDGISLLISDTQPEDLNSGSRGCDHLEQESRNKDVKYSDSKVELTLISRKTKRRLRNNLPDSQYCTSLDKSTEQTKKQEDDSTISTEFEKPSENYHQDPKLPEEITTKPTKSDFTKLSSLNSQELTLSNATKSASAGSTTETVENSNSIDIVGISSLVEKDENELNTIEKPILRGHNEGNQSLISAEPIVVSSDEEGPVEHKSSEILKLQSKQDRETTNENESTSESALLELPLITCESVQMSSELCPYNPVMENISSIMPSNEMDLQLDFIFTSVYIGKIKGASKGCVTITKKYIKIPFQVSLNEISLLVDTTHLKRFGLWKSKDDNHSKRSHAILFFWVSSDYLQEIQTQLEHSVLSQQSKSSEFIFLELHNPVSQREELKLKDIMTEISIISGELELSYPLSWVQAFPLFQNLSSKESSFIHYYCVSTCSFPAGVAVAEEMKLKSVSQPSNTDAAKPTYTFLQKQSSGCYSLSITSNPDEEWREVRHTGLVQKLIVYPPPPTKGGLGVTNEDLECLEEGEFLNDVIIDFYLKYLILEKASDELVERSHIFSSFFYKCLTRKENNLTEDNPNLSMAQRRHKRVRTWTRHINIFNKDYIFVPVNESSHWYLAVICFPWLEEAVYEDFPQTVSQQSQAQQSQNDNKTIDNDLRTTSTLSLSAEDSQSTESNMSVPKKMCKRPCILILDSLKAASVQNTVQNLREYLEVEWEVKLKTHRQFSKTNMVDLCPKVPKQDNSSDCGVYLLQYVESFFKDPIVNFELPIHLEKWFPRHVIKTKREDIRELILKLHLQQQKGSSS
Format: functional.

A further test addresses T4, Caspase-3 (Homo sapiens, UniProt P42574).
T4 sequence (P42574 whole entry): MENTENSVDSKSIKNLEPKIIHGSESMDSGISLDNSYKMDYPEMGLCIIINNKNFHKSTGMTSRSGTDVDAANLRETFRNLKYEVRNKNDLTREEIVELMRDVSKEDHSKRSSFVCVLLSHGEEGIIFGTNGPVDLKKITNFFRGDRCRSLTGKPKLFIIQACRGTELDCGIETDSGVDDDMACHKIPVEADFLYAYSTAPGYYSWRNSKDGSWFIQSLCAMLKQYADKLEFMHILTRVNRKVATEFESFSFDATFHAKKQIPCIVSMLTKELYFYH
Format: functional.

The target of test [4] is T5, Sentrin-specific protease 6 (Homo sapiens, UniProt Q9GZR1).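 Also: Luminescence-based dose-response confirmatory assay of SENP6 inhibition, following up an ultra-high-throughput screen.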
T5 sequence (Q9GZR1 whole entry): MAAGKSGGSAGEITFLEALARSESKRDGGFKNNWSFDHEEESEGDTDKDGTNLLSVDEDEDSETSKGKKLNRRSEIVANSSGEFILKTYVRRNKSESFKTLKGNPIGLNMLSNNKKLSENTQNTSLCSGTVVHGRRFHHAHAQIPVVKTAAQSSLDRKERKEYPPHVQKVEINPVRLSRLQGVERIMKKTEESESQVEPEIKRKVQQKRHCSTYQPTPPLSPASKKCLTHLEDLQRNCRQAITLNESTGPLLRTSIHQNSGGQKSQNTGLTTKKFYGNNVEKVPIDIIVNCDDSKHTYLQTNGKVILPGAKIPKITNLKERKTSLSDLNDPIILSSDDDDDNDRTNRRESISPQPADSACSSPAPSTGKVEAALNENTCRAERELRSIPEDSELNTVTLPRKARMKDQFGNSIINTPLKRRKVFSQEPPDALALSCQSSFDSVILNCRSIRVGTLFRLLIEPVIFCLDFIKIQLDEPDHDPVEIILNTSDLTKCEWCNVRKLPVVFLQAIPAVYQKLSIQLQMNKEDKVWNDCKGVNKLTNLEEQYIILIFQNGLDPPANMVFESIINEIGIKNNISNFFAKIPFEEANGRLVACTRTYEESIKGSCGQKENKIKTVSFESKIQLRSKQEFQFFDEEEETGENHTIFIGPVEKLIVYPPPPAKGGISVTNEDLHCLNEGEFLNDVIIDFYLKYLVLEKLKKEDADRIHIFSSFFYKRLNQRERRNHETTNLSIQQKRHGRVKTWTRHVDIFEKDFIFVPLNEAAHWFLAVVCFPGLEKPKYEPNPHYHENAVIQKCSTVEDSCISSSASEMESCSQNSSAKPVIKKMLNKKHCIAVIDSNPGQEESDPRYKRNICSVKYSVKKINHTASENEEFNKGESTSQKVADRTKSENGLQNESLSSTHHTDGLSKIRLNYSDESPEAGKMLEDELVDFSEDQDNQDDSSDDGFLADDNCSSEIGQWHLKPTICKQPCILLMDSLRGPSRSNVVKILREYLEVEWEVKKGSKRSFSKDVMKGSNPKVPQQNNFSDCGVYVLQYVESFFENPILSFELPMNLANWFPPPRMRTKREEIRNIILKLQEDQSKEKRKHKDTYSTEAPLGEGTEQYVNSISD
It is filed as functional.

The target in test [5] is T1, Polyadenylate-binding protein 1. As to the kind of experiment: PABP1 MLLE–PAM2 interaction inhibitors, dose response, miRNA deadenylation inhibitor project, biochemical, fluorescence polarization, Cy5-PAM2 peptide, secondary (AID 602260). The conditions noted are these: read-out: IC50_Mean. Format: functional.
Test [6] addresses T6, Short transient receptor potential channel 4 (Mus musculus, UniProt Q9QUQ5).
T6 sequence (Q9QUQ5 whole entry): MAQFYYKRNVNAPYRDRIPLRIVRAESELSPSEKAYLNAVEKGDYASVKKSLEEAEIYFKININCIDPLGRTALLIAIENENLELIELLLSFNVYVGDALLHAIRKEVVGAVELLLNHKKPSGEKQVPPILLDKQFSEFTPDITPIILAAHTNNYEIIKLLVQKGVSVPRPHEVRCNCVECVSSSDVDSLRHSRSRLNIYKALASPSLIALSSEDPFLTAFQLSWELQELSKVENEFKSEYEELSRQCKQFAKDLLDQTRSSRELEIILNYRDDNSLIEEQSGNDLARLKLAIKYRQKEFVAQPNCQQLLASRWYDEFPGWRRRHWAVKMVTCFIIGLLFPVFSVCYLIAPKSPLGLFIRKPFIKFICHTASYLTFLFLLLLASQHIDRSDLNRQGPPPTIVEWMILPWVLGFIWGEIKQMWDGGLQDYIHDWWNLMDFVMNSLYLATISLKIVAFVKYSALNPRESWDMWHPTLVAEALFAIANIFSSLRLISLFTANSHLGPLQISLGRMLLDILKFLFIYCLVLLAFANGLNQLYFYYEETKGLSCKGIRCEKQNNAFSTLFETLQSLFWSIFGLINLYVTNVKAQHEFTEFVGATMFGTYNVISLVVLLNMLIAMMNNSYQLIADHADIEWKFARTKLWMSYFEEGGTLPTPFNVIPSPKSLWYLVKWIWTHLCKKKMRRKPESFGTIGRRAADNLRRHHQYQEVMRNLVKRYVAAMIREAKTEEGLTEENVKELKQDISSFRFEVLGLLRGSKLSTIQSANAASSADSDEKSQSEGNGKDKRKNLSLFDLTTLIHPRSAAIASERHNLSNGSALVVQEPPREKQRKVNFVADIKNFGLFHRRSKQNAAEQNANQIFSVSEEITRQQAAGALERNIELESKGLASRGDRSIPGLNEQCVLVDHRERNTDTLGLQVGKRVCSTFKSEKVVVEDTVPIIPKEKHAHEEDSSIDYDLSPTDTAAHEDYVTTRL
The experiment in a line: mouse TRPC4 channel inhibitors, dose response, cell-based, HEK293 TRPC4/mu-opioid, Fluo-4 calcium (AID 434942).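 Also: potency of inhibitors blocking the TRPC4 calcium response.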 Format: functional.

The target of test [7] is FAD-linked sulfhydryl oxidase ALR (Homo sapiens, UniProt P55789). As to the kind of experiment: inhibitors of human ALR sulfhydryl oxidase, dose response, biochemical, H2O2 detection, luminescence, cherry-pick (AID 493248).
Chain of FAD-linked sulfhydryl oxidase ALR (P55789 whole entry): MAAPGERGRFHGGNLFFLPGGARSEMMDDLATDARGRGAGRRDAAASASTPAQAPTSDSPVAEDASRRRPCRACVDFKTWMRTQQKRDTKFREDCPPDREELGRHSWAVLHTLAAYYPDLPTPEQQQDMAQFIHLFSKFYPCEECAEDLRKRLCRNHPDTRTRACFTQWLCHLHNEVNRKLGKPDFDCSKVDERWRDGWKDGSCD
For test [8], the target named is T7, High affinity choline transporter 1 (Homo sapiens, UniProt Q9GZV3).
T7 sequence (Q9GZV3 whole entry): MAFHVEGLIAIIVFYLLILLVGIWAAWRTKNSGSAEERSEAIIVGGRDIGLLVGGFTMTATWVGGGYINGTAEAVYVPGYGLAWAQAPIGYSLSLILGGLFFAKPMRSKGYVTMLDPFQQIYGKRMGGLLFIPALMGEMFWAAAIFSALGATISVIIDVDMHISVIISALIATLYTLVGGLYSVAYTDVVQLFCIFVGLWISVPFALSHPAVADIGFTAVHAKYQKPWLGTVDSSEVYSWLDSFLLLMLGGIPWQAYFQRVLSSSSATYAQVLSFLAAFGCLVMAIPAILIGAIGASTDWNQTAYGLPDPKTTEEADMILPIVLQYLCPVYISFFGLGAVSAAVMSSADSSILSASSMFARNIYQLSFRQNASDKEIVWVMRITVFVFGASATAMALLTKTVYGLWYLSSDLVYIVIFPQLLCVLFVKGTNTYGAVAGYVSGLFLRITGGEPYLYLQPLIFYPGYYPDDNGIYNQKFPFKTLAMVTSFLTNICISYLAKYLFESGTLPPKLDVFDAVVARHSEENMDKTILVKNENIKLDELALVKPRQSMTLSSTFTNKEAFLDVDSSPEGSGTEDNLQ
The experiment in a line: CHT inhibitors, dose response, cell-based, 5-point CRC, membrane potential dye (AID 504840). Format: functional.

The nature of test [9]: cells. It is filed as functional, cell-based.
Test [10] is described as follows: cells. Format: functional, cell-based. This is another data set of the same source.

Activity calls are given as the source filed them.

T1 sequence (P11940 whole entry): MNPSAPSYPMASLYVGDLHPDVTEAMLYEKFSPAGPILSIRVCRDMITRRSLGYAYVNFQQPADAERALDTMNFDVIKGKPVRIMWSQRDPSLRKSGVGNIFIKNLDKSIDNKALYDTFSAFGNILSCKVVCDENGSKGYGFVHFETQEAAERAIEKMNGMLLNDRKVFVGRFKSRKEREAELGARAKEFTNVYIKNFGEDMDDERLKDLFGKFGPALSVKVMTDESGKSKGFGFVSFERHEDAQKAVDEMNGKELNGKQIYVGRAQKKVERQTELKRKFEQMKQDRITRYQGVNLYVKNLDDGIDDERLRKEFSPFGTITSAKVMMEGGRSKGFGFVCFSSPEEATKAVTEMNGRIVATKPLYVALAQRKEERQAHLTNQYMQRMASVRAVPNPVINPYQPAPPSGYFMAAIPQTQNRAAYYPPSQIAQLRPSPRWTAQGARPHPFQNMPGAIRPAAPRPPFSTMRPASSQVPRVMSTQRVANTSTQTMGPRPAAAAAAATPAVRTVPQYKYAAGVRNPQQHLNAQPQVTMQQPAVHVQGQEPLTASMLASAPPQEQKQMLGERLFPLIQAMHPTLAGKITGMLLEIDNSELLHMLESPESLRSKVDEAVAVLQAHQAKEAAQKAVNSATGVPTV

`O=C(c1ccc(F)cc1)n1c(=S)nc2ccccn21`: the IC50 in test [1] is > 66 µM (inactive); in [2], 86.1 µM (active); in [3], 18.1 µM (active); on Caspase-3, 52.2 µM (active); in [4], 60.4 µM (active); in test [5] it was > 66 µM (inactive).

Broadly, the EC50 is the concentration giving half of the maximal effect. For orientation: AC50 means the midpoint of the concentration-response curve, whichever way the signal moves. For the compound `c1ccc(Nc2[nH]nnc2-c2ccccc2)cc1`, the EC50 in test [6] was 1.88 µM (active). The AC50 in test [7] is > 100 µM (inactive).

Take `CCC1=Nc2cc(C(=O)N3CCC4(CC3)OCCO4)ccc2Sc2ccc(C)cc21`: the EC50 in [6] is 7.5 µM (active).

In the case of `S=C(NCCCN1CCOCC1)Nc1cccc(-c2nnc3n2CCCCC3)c1`, the IC50 in test [8] was 13.9 µM (active).

Turning to `CCOC(=O)c1sc(NC(=O)c2ccc3nc[nH]c3c2)nc1C`, the IC50 in [2] was 3.4 µM (active); in test [3], 2.47 µM (active); on Caspase-3, 7.1 µM (active); in test [4] it was 5.17 µM (active).

On to `CN1CCN(c2ccc(NC(=O)c3ccc(Br)o3)cc2)CC1`, for which the EC50 in test [6] was 0.841 µM (active).

With `CC(C)=CCN1CCN(Cc2cn(C(C)C)c3ccccc23)CC1CCO` (stereo not drawn), the IC50 in [8] is 13.2 µM (active).

Regarding `CCOC(=O)c1sc(NC(=O)CCN2CCN(C)CC2)c(C(=O)OCC)c1C`, the IC50 in test [8] is 14.5 µM (active).

As for `O=C(CCc1ccccc1)Nc1ccnn1C1CCN(C/C=C/c2ccccc2)CC1`, the results for the half-maximal effective concentration (EC50) (in the test “cells [9]”; in the test “cells [10]”; in test [6]) were > 350 µM (not active), > 350 µM (not active) and 1.5 µM (active), respectively.

As to `COc1cccc(OC)c1OCCCCCc1c(C)n[nH]c1C`, the IC50 in test [8] is 9.12 µM (active).

As to `Cc1cc(OCC(=O)Nc2ccc(N3CCN(C)CC3)cc2)ccc1Cl`, the EC50 in [6] was 2.66 µM (active).

Regarding `CC1CCN(S(=O)(=O)c2ccc3c(c2)N(CC(=O)NCCN2C(C)CCCC2C)C(=O)CS3)CC1` (stereo not drawn), the IC50 in test [8] is 11.3 µM (active).
